Earlier results, collected in patent US20040009212A1, “Mucoadhesive thermoresponsive medicament-carrier composition” (PHARMA POWER BIOTEC CO. LTD., priority 2002, published 2004).

Tested on: leukoplakia
Conditions: of 12 leukoplakia patients

For `NCC(=O)CCC(=O)O` [ALA, 5-aminolevulinic acid], the patients having response (topical ALA in 20wt. % eucerin with arabic gum and paraffin, with PDT) is given as 9 patients and the “patients having full response” value (topical ALA with PDT) is given as 5 patients.
